Converted amounts (≈) assume the structure as drawn.
Test: not given
Conditions: cited from earlier work

| Compound | First pKa (conjugate acid) | Second pKa (conjugate acid) | Third pKa (conjugate acid) |
| --- | --- | --- | --- |
| O=C([O-])[O-].[K+].[K+] [K2CO3, potassium carbonate] | 10.2 | 6.4 | – |
| O=P([O-])([O-])OP(=O)([O-])[O-].[K+].[K+].[K+].[K+] [K4P2O7, potassium pyrophosphate] | 9.0 | 7.0 | 2.0 |
| O=C([O-])[O-].[Na+].[Na+] [Na2CO3, sodium carbonate] | 10.2 | 6.4 | – |
| O.O=C([O-])[O-].[Na+].[Na+] [Na2CO3.H2O, sodium carbonate monohydrate] | 10.2 | 6.4 | – |
| O=P([O-])([O-])OP(=O)([O-])[O-].[Na+].[Na+].[Na+].[Na+] [Na4P2O7, sodium pyrophosphate] | 9.0 | 7.0 | 2.0 |
| sodium phosphate dodecahydrate [Na3PO4.12H2O] | – | 7.2 | 2.1 |

Test: not given
Conditions: in water at ambient temperatures, typically about 20 to 25° C.; cited from earlier work

| Compound | pKa |
| --- | --- |
| COc1cc(OC)nc(NC(=O)NS(=O)(=O)N(C)S(C)(=O)=O)n1 [amidosulfuron, N-[[[[(4,6-dimethoxy-2-pyrimdinyl)amino]carbonyl]amino]-sulfonyl]-N-methylmethanesulfonamide] | 3.6 |
| COCCOc1ccccc1S(=O)(=O)NC(=O)N=c1nc(OC)[nH]c(OC)n1 [cinosulfuron, N-[[(4,6-dimethoxy-1,3,5-triazin-2-yl)amino]carbonyl]-2-(2-methoxyethoxy)benzenesulfonamide] | 4.7 |
| CCOc1nc(F)cc2nc(S(=O)(=O)Nc3c(Cl)cccc3C(=O)OC)nn12 [cloransulam-methyl, methyl 3-chloro-2-[[(5-ethoxy-7-fluoro[1,2,4]-triazolo[1,5-c]pyrimidin-2-yl)sulfonyl]amino]benzoate] | 4.8 |
| CCOc1nc(NC)nc(NC(=O)NS(=O)(=O)c2ccccc2C(=O)OC)n1 [ethametsulfuron-methyl, methyl 2-[[[[[4-ethoxy-6-(methylamino)-1,3,5-triazin-2-yl]amino]carbonyl]amino]sulfonyl]benzoate] | 4.6 |
| COc1ncc(F)c2nc(S(=O)(=O)Nc3c(F)cccc3F)nn12 [florasulam, N-(2,6-difluorophenyl)-8-fluoro-5-methoxy[1,2,4]triazolo[1,5-c]pyrimidine-2-sulfonamide] | 4.5 |
| COC(=O)c1c(Cl)nn(C)c1S(=O)(=O)NC(=O)Nc1nc(OC)cc(OC)n1 [halosulfuron-methyl, methyl 3-chloro-5-[[[[(4,6-dimethoxy-2-pyrimidinyl)amino]carbonyl]amino]sulfonyl]-1-methyl-1H-pyrazole-4-carboxylate] | 3.4 |
| CCOC(=O)c1cnn(C)c1S(=O)(=O)NC(=O)Nc1nc(OC)cc(OC)n1 [pyrazosulfuron-ethyl, ethyl 5-[[[[(4,6-dimethoxy-2-pyrimidinyl)amino]carbonyl]amino]sulfonyl]-1-methyl-1H-pyrazole-4-carboxylate] | 3.7 |
| COc1nc(C)nc(NC(=O)NS(=O)(=O)c2ccccc2OCCCl)n1 [triasulfuron, 2-(2-chloroethoxy)-N-[[(4-methoxy-6-methyl-1,3,5-triazin-2-yl)amino]carbonyl]benzenesulfonamide] | 4.6 |
| COc1cc(OC)nc(NC(=O)NS(=O)(=O)c2ncccc2OCC(F)(F)F)n1 [trifloxysulfuron, N-[[(4,6-dimethoxy-2-pyrimidinyl)amino]-carbonyl]-3-(2,2,2-trifluoroethoxy)-2-pyridinesulfonamide] | 4.8 |
| N-[[[2-(cyclopropylcarbonyl)phenyl]amino]sulfonyl]-N^1-(4,6-dimethoxypyrimidin-2-yl)urea [cyclosulfamuron] | 5.0 |
| methyl 2-[[[[[4,6-bis(trifluoromethoxy)-2-pyrimidinyl]amino]carbonyl]amino]sulfonyl]-benzoate [primisulfuron-methyl] | 3.5 |

Test: physchem
Conditions: pH 7, aqueous buffer, thermodynamic from solid
Description: At least 1 times up to about 5 times the amount of sulfonamide needed for saturation is added to a mixing vessel containing stock buffer solution at the test temperature (e.g., 20° C.). The mixture is magnetically stirred in the dark while being maintained at the test temperature. Samples are periodically removed for analysis. The samples are centrifuged using a high speed, temperature-controlled centrifuge at the test temperature for about 20 minutes at ≧12000 G to remove suspended particles. An aliquot of each supernatant is taken for analysis.
The concentration of sulfonamide in the supernatant is determined by a high pressure liquid chromatography (HPLC) method suitable for the particular sulfonamide. Typically the HPLC method will use a reversed phase chromatography column and UV detection. […] Also, the pH of the supernatant is measured using a calibrated pH meter capable of resolving differences of 0.1 pH units or less to verify that the pH is 7. Samples are successively withdrawn from the mixing vessel and analyzed until three successive samples show little or no variation in concentration. The test is preferably replicated to ensure accuracy.

| Compound | solubility [µg/mL] |
| --- | --- |
| COC(=O)c1ccccc1CS(=O)(=O)NC(=O)Nc1nc(OC)cc(OC)n1 [bensulfuron-methyl, methyl 2-[[[[[(4,6-dimethoxy-2-pyrimidinyl)amino]carbonyl]amino]-sulfonyl]methyl]benzoate] | < 1000 |
| CCOC(=O)c1ccccc1S(=O)(=O)NC(=O)Nc1nc(Cl)cc(OC)n1 [chlorimuron-ethyl, ethyl 2-[[[[(4-chloro-6-methoxy-2-pyrimdinyl)amino]carbonyl]amino]sulfonyl]benzoate] | 1000 to 10000 (≈ 2410 to 24100 µM) |
| COC(=O)c1ccccc1S(=O)(=O)NC(=O)Nc1nc(C)nc(OC)n1 [metsulfuron-methyl, methyl 2-[[[[(4-methoxy-6-methyl-1,3,5-triazin-2-yl)amino]carbonyl]amino]sulfonyl]-benzoate] | 1000 to 10000 (≈ 2620 to 26200 µM) |
| COC(=O)c1ccccc1S(=O)(=O)NC(=O)Nc1nc(C)cc(C)n1 [sulfometuron-methyl, methyl 2-[[[[(4,6-dimethyl-2-pyrimidinyl)amino]carbonyl]amino]sulfonyl]benzoate] | < 1000 |
| COC(=O)c1ccccc1S(=O)(=O)NC(=O)N(C)c1nc(C)nc(OC)n1 [tribenuron-methyl, methyl 2-[[[[N-(4-methoxy-6-methyl-1,3,5-triazin-2-yl)-N-methylamino]carbonyl]-amino]sulfonyl]benzoate] | 1000 to 10000 (≈ 2530 to 25300 µM) |
